# From US20230151025A1, “SUBSTITUTED THIAZOLOPYRIDINES, SALTS THEREOF AND THEIR USE AS HERBICIDALLY ACTIVE SUBSTANCES” (Bayer Aktiengesellschaft, priority 2020, published 2023)
# How the values were obtained:
# Assay type in all cases: in vivo
# Veronica persica (VERPE) [1] = assay: Herbicidal post-emergence action (B), 1280 g/ha
# Text: (§1) ABUTH: Abutilon theophrasti AGSTE: Agrostis tenuis ALOMY: Alopecurus myosuroides AMARE Amaranthus retroflexus DIGSA: Digitaria sanguinalis ECHCG: Echinochloa crus-galli KCHSC: Kochia scoparia LOLRI: Lolium rigidum MATIN: Matricaria inodora POAAN: Poa annua POLCO: Polygonum convolvulus SETVI: Setaria viridis STEME: Stellaria media VERPE: Veronica persica VIOTR: Viola tricolor
# (§2) Seeds of mono- and dicotyledonous weed plants were placed in plastic pots in sandy loam soil (doubly sown with in each case one species of mono- or dicotyledonous weed plants per pot), covered with soil and cultivated in a greenhouse under controlled growth conditions. 2 to 3 weeks after sowing, the test plants were treated at the one-leaf stage. The compounds of the invention, formulated in the form of wettable powders (WP) or as emulsion concentrates (EC), were applied onto the green parts of the plants as aqueous suspension or emulsion with addition of 0.5% additive at a water application rate of 600 liters per hectare (converted). After the test plants had been kept in the greenhouse under optimum growth conditions for about 3 weeks, the activity of the preparations was rated visually in comparison to untreated controls. For example, 100% activity=the plants have died, 0% activity=like control plants.
# (§3) Tables B1 to B12, below, show the effects of selected compounds of the general formula (I) according to table 1 on various harmful plants and an application rate corresponding to 1280 g/ha obtained by the experimental procedure mentioned above.
# [2] = tested on: Kochia scoparia (KCHSC; Bassia scoparia); assay: Herbicidal post-emergence action (B), 1280 g/ha
# Text: as §1, §2, §3
# Stellaria media (STEME) [3] = assay: Herbicidal pre-emergence action (A), 1280 g/ha; settings: visual grading after ca. 3 weeks vs untreated controls
# Text: as §1
# (§4) Seeds of mono- and dicotyledonous weed plants were sown in plastic pots (double sowings with one species of mono- and one species of dicotyledonous weed plants per pot), in sandy loam, and covered with soil. The compounds according to the invention, formulated in the form of wettable powders (WP) or as emulsifiable concentrates (EC), were applied to the surface of the covering soil as aqueous suspension or emulsion, with the addition of 0.5% of an additive, at an application rate of 600 l of water per hectare (converted). Following treatment, the pots were placed in a greenhouse and kept under optimum growth conditions for the test plants. The visual grading of the damage to the test plants was carried out after ca. 3 weeks in comparison to untreated controls (herbicidal effect in percent (%): 100% effect=plants have died off, 0% effect=as control plants).
# (§5) Tables A1 to A12, below, show the effects of selected compounds of the general formula (I) according to table 1 on various harmful plants and an application rate corresponding to 1280 g/ha obtained by the experimental procedure mentioned above.
# [4] = tested on: Kochia scoparia (KCHSC; Bassia scoparia); assay: Herbicidal pre-emergence action (A), 1280 g/ha; settings: visual grading after ca. 3 weeks vs untreated controls
# Text: as §1, §4, §5
# [5] = tested on: Digitaria sanguinalis (DIGSA); assay: Herbicidal pre-emergence action (A), 1280 g/ha; settings: visual grading after ca. 3 weeks vs untreated controls, 100% = plants have died off, 0% = as control plants
# Text: as §1, §4, §5
# Setaria viridis (SETVI) = assay: Herbicidal pre-emergence action (A), 1280 g/ha; settings: visual grading after ca. 3 weeks vs untreated controls
# Text: as §1, §4, §5
# [6] = tested on: Alopecurus myosuroides (ALOMY); assay: Herbicidal post-emergence action (B), 1280 g/ha; settings: rated visually after about 3 weeks vs untreated controls
# Text: as §1, §2, §3
# [7] = tested on: Echinochloa crus-galli (ECHCG); assay: Herbicidal pre-emergence action (A), 1280 g/ha; settings: visual grading after ca. 3 weeks vs untreated controls, 100% = plants have died off, 0% = as control plants
# Text: as §1, §4, §5
# Lolium rigidum (LOLRI) = assay: Herbicidal pre-emergence action (A), 1280 g/ha; settings: visual grading after ca. 3 weeks vs untreated controls, 100% = plants have died off, 0% = as control plants
# Text: as §1, §4, §5
# Veronica persica (VERPE) [8] = assay: Herbicidal pre-emergence action (A), 1280 g/ha; settings: visual grading after ca. 3 weeks vs untreated controls
# Text: as §1, §4, §5
# [9] = tested on: Alopecurus myosuroides (ALOMY); assay: Herbicidal pre-emergence action (A), 1280 g/ha; settings: visual grading after ca. 3 weeks vs untreated controls, 100% = plants have died off, 0% = as control plants
# Text: as §1, §4, §5
# Poa annua (POAAN) [10] = assay: Herbicidal pre-emergence action (A), 1280 g/ha; settings: visual grading after ca. 3 weeks vs untreated controls, 100% = plants have died off, 0% = as control plants
# Text: as §1, §4, §5
# [11] = tested on: Amaranthus retroflexus (AMARE); assay: Herbicidal post-emergence action (B), 1280 g/ha; settings: rated visually after about 3 weeks vs untreated controls
# Text: as §1, §2, §3
# Poa annua (POAAN) [12] = assay: Herbicidal post-emergence action (B), 1280 g/ha; settings: rated visually after about 3 weeks vs untreated controls
# Text: as §1, §2, §3
# [13] = tested on: Matricaria inodora (MATIN); assay: Herbicidal pre-emergence action (A), 1280 g/ha; settings: visual grading after ca. 3 weeks vs untreated controls
# Text: as §1, §4, §5
# [14] = tested on: Amaranthus retroflexus (AMARE); assay: Herbicidal pre-emergence action (A), 1280 g/ha; settings: visual grading after ca. 3 weeks vs untreated controls
# Text: as §1, §4, §5
# [15] = tested on: Echinochloa crus-galli (ECHCG); assay: Herbicidal post-emergence action (B), 1280 g/ha; settings: rated visually after about 3 weeks vs untreated controls
# Text: as §1, §2, §3
# Stellaria media (STEME) [16] = assay: Herbicidal post-emergence action (B), 1280 g/ha
# Text: as §1, §2, §3
smiles,measurement,setting,value
CCc1cc2sc(S)nc2nc1C1=CCCCC1 [Example I-176],herbicidal effect VERPE,Veronica persica (VERPE) [1],90%
same,herbicidal effect KCHSC,[2],90%
same,herbicidal effect STEME,Stellaria media (STEME) [3],90%
same,herbicidal effect KCHSC,[4],90%
same,"DIGSA, herbicidal effect in percent (%)",[5],90%
same,herbicidal effect SETVI,Setaria viridis (SETVI),100%
Cc1cc2scnc2nc1-c1sc(Br)cc1C [Example I-198],herbicidal effect VERPE,Veronica persica (VERPE) [1],100%
same,herbicidal activity ALOMY,[6],90%
same,herbicidal effect KCHSC,[2],90%
same,"ECHCG, herbicidal effect in percent (%)",[7],100%
same,herbicidal effect STEME,Stellaria media (STEME) [3],90%
same,"LOLRI, herbicidal effect in percent (%)",Lolium rigidum (LOLRI),90%
same,herbicidal effect VERPE,Veronica persica (VERPE) [8],90%
same,"ALOMY, herbicidal effect in percent (%)",[9],100%
same,"POAAN, herbicidal effect in percent (%)",Poa annua (POAAN) [10],100%
same,herbicidal effect SETVI,Setaria viridis (SETVI),100%
CCOC(=O)C(C#N)c1nc2nc(-c3ccccc3F)c(Br)cc2s1 (stereo not drawn) [Example I-086],herbicidal activity ALOMY,[6],100%
same,herbicidal effect KCHSC,[2],90%
same,herbicidal activity AMARE,[11],100%
same,"ALOMY, herbicidal effect in percent (%)",[9],90%
same,"POAAN, herbicidal effect in percent (%)",Poa annua (POAAN) [10],90%
Cc1cc(C)c(-c2nc3ncsc3cc2C)s1 [Example I-195],herbicidal activity ALOMY,[6],100%
same,herbicidal activity POAAN,Poa annua (POAAN) [12],100%
same,herbicidal effect KCHSC,[2],90%
same,"ECHCG, herbicidal effect in percent (%)",[7],100%
same,herbicidal effect STEME,Stellaria media (STEME) [3],90%
same,"LOLRI, herbicidal effect in percent (%)",Lolium rigidum (LOLRI),100%
same,herbicidal effect VERPE,Veronica persica (VERPE) [8],90%
same,"POAAN, herbicidal effect in percent (%)",Poa annua (POAAN) [10],100%
same,herbicidal effect KCHSC,[4],90%
same,herbicidal effect MATIN,[13],90%
same,herbicidal effect SETVI,Setaria viridis (SETVI),100%
CSc1nc2nc(-c3ccccc3C)c(C)cc2s1 [Example I-043],herbicidal effect VERPE,Veronica persica (VERPE) [1],90%
same,herbicidal effect KCHSC,[2],90%
same,herbicidal activity AMARE,[11],100%
same,herbicidal effect VERPE,Veronica persica (VERPE) [8],100%
same,herbicidal effect KCHSC,[4],90%
same,herbicidal effect AMARE,[14],90%
same,"DIGSA, herbicidal effect in percent (%)",[5],90%
same,herbicidal effect SETVI,Setaria viridis (SETVI),90%
Cc1ncccc1-c1nc2ncsc2cc1Br [Example I-129],"LOLRI, herbicidal effect in percent (%)",Lolium rigidum (LOLRI),90%
same,"ALOMY, herbicidal effect in percent (%)",[9],90%
same,"POAAN, herbicidal effect in percent (%)",Poa annua (POAAN) [10],100%
same,herbicidal effect KCHSC,[4],90%
same,herbicidal effect AMARE,[14],90%
same,herbicidal effect SETVI,Setaria viridis (SETVI),100%
Cc1cc2sc([S+](C)[O-])nc2nc1-c1ccccc1F (stereo not drawn) [Example I-104],herbicidal effect VERPE,Veronica persica (VERPE) [1],100%
same,herbicidal effect KCHSC,[2],100%
same,herbicidal activity AMARE,[11],90%
same,herbicidal effect STEME,Stellaria media (STEME) [3],90%
same,herbicidal effect VERPE,Veronica persica (VERPE) [8],90%
same,"POAAN, herbicidal effect in percent (%)",Poa annua (POAAN) [10],100%
same,herbicidal effect KCHSC,[4],100%
same,herbicidal effect MATIN,[13],90%
same,herbicidal effect AMARE,[14],90%
same,"DIGSA, herbicidal effect in percent (%)",[5],100%
same,herbicidal effect SETVI,Setaria viridis (SETVI),100%
CCOc1nc2nc(-c3ccccc3C)c(CC)cc2s1 [Example I-055],herbicidal activity ECHCG,[15],90%
same,herbicidal activity POAAN,Poa annua (POAAN) [12],100%
same,"ECHCG, herbicidal effect in percent (%)",[7],100%
same,herbicidal effect STEME,Stellaria media (STEME) [3],90%
same,"LOLRI, herbicidal effect in percent (%)",Lolium rigidum (LOLRI),90%
same,"POAAN, herbicidal effect in percent (%)",Poa annua (POAAN) [10],100%
same,herbicidal effect KCHSC,[4],100%
same,herbicidal effect SETVI,Setaria viridis (SETVI),100%
Cc1cscc1-c1nc2ncsc2cc1Br [Example I-141],herbicidal activity ECHCG,[15],90%
same,herbicidal effect VERPE,Veronica persica (VERPE) [1],90%
same,herbicidal effect KCHSC,[2],90%
same,herbicidal activity AMARE,[11],90%
same,"ECHCG, herbicidal effect in percent (%)",[7],100%
same,herbicidal effect STEME,Stellaria media (STEME) [3],90%
same,herbicidal effect VERPE,Veronica persica (VERPE) [8],90%
same,"ALOMY, herbicidal effect in percent (%)",[9],100%
same,"POAAN, herbicidal effect in percent (%)",Poa annua (POAAN) [10],100%
same,herbicidal effect MATIN,[13],90%
same,herbicidal effect AMARE,[14],90%
same,herbicidal effect SETVI,Setaria viridis (SETVI),100%
Cc1cc2sc(S)nc2nc1-c1ccccc1F [Example I-155],herbicidal effect VERPE,Veronica persica (VERPE) [1],90%
same,herbicidal effect KCHSC,[2],100%
same,herbicidal activity AMARE,[11],100%
same,"ECHCG, herbicidal effect in percent (%)",[7],100%
same,herbicidal effect VERPE,Veronica persica (VERPE) [8],90%
same,"POAAN, herbicidal effect in percent (%)",Poa annua (POAAN) [10],100%
same,herbicidal effect KCHSC,[4],90%
same,herbicidal effect AMARE,[14],90%
same,"DIGSA, herbicidal effect in percent (%)",[5],90%
same,herbicidal effect SETVI,Setaria viridis (SETVI),100%
Cc1nc2nc(-c3ccccc3Cl)c(C)cc2s1 [Example I-103],"ECHCG, herbicidal effect in percent (%)",[7],90%
same,herbicidal effect STEME,Stellaria media (STEME) [3],100%
same,"POAAN, herbicidal effect in percent (%)",Poa annua (POAAN) [10],90%
same,"DIGSA, herbicidal effect in percent (%)",[5],90%
same,herbicidal effect SETVI,Setaria viridis (SETVI),90%
N#CCc1nc2nc(-c3ccccc3F)c(Br)cc2s1 [Example I-071],herbicidal effect STEME,Stellaria media (STEME) [16],90%
same,herbicidal effect VERPE,Veronica persica (VERPE) [1],90%
same,herbicidal activity ALOMY,[6],90%
same,herbicidal effect KCHSC,[2],90%
same,herbicidal activity AMARE,[11],90%
same,"ECHCG, herbicidal effect in percent (%)",[7],100%
same,herbicidal effect STEME,Stellaria media (STEME) [3],90%
same,"LOLRI, herbicidal effect in percent (%)",Lolium rigidum (LOLRI),100%
same,herbicidal effect VERPE,Veronica persica (VERPE) [8],90%
same,"POAAN, herbicidal effect in percent (%)",Poa annua (POAAN) [10],100%
same,herbicidal effect KCHSC,[4],90%
same,herbicidal effect AMARE,[14],90%
same,herbicidal effect SETVI,Setaria viridis (SETVI),90%
Cc1ccccc1-c1nc2ncsc2cc1Cl [Example I-083],herbicidal effect STEME,Stellaria media (STEME) [16],100%
same,herbicidal effect VERPE,Veronica persica (VERPE) [1],90%
same,herbicidal effect KCHSC,[2],90%
same,herbicidal activity AMARE,[11],100%
same,"ECHCG, herbicidal effect in percent (%)",[7],100%
same,herbicidal effect STEME,Stellaria media (STEME) [3],100%
same,"LOLRI, herbicidal effect in percent (%)",Lolium rigidum (LOLRI),100%
same,herbicidal effect VERPE,Veronica persica (VERPE) [8],100%
same,"ALOMY, herbicidal effect in percent (%)",[9],100%
same,"POAAN, herbicidal effect in percent (%)",Poa annua (POAAN) [10],100%
same,"DIGSA, herbicidal effect in percent (%)",[5],100%
same,herbicidal effect SETVI,Setaria viridis (SETVI),100%
